Data as given in US20260115122A1, “PERSONAL CARE COMPOSITIONS COMPRISING PANCRATIUM MARITIMUM” (GALDERMA HOLDING SA, priority 2022, published 2026).

System: Normal Human Epidermal Melanocytes darkly-pigmented (NHEM-DP)
Assay: Melanin content (melanin reduction) assay
Assay type: cell-based
Conditions: 72 h treatment, test product 0.004%, n=3, FIG. 2
Experimental: Normal Human Epidermal Melanocytes—NHEMs-DP. Normal Human Epidermal Melanocytes darkly-pigmented (NHEM-DP; Thermo Fisher Scientific, C1025C) were grown in M254 medium (Thermo Fisher Scientific, M254500) supplemented with Human Melanocyte Growth Supplement (HMGS; Thermo Fisher Scientific, S0025) and antibiotics (Gentamycin, Thermo Fisher Scientific, 15710049). The cells were maintained in a humidified incubator at 37° C. with a 5% CO2 atmosphere.
At the end of treatment, NHEM-DP cells (n=3) were lysed using NaOH (1N; Merck, 109956) solution. From the collected extracts, the protein content was quantified by a colorimetric assay (Pierce Coomassie Protein Assay Kit, Thermo Fischer Scientific, 23200) using a spectrophotometer (GloMax Explorer GM3500, Microplate Reader) for reading of the optical density at 600 nm. The melanin content was determined after sample heating for 1 h at 80° C. for its solubilization and reading of the optical density at 490 nm. Afterwards, the amount of melanin was determined on the basis of a standard curve using synthetic melanin (Sigma Aldrich, 8631) and then normalized to the total protein content. […]
At the end of the treatments, intracellular melanin was extracted from cell cultures and analyzed as described in materials and methods in Example 1. […]

With `O=c1cc(CO)occ1O` [Kojic acid] the “melanin content vs untreated control” value was “significantly decreased the melanin content”.
